US20220187282A1, “CARDIOMYOCYTE PROLIFERATION” (The Council of the Queensland Institute of Medical Research, priority 2019, published 2022)

Legend:
hPSC-CMs = assay: 2D high-content primary screen, DNA synthesis (EdU) in hPSC-CM; assay type: cell-based, human; settings: for 2D Screen Max Effect (%): maximum over 0.1, 1, 10 uM
From the text: The compound library included 5,000 biologically annotated pre-clinical, clinical, and tool compounds. They were selected based on a combination of criteria including balancing the number of external/internal compounds, diversity of annotated targets to cover greater than 1500 biological targets, and known targets associated with cell proliferation. […] Both negative vehicle (DMSO) and positive (CHIR99021) controls were included on each plate in each experiment (FIG. 2B,C).

mature hCOs = assay: mature hCO, mitosis (pH3) of cardiomyocytes; assay type: cell-based, human; settings: 2 days, optimal concentrations
Protocol: Whole-Mount Immunostaining hCOs were fixed for 60 min with 1% paraformaldehyde (Sigma) at room temperature and washed 3× with PBS, after which they were incubated with primary antibodies (see Star Methods Table) in Blocking Buffer, 5% FBS and 0.2% Triton-X-100 (Sigma) in PBS overnight at 4° C. Cells were then washed in Blocking Buffer 2× for 2 h and subsequently incubated with secondary antibodies (see Star Methods Table) and Hoechst33342 (1:1000) overnight at 4° C. They were washed in Blocking Buffer 2× for 2 h and imaged in situ or mounted on microscope slides using Fluoromount-G (Southern Biotech).
For more detailed images an Olympus IX81 confocal microscope was used for mounted hCO imaging. For cell cycle analysis experiments 3 random fields of view were imaged and manually quantified for proliferation. These were added together to calculate the percentage of hPSC-CM proliferation in each hCO.
Hits were next validated in mature hCOs using a targeted concentration range based on their active concentrations in the initial immature hCO screen (FIG. 3A). Proliferation markers were quantified using high magnification confocal imaging as we found flow cytometry to be inaccurate in hCO (data not shown). Compounds 3, 63 and 65 had no impact on contractile force (FIG. 3B) at concentrations of 3 μM, 0.3 μM and 1 μM, respectively. […]

[1] = test system: adult cardiomyocytes (MLC2v); assay: adult mouse intracardiac injection, BrdU+ cardiomyocytes after fix-dissociation; assay type: in vivo; settings: adult mice; for cardiomyocyte DNA synthesis (BrdU+): single dose 10 mg/kg injected into the heart, 3 days
Protocol: 8-week-old male mice were anesthetized with 4% isoflurane (Bayer) with 0.25 L/min oxygen and then maintained with 2% isoflurane. Once, anaesthetised, each mouse received a s.c. buprenorphine injection (0.05 mg/kg). The animals were intubated and ventilated (Minivent, Harvard Apparatus) (tidal volume=250 respiration rate=133 strokes/min). To access the heart, a lateral thoracotomy was performed at the 4th intercostal space. A Hamilton syringe with a 30-gauge needle was used to inject ˜20 ? l of small molecule solution (final concentration 10 mg/kg) into the myocardium. All compounds were emulsified in Kolliphor/PBS solution (20% Kolliphor® HS 15 (w/v) in PBS, pH 7.4) at a concentration of 20 mg/mL. The chest wall was closed using 4-0 silk suture, the skin closed with 6-0 prolene suture and the mouse removed from anaesthesia. Following anaesthesia, mice were supplied with a s.c. injection of buprenorphine (0.05 mg/kg) and carprofen (10 mg/kg) and allowed to recover. Starting from the day of the surgery, mice received daily 5-bromo-2′-deoxyuridine (BrdU) injections (100 mg/kg, i.p.). […]
Cardiomyocytes were the counted, cytospun onto glass slides and stained with BrdU and MLC2v antibodies, relevant secondary antibodies (see Star Methods Table) and Hoechst (1:1000) to quantify proliferating cardiomyocytes. The AlexaFluor 647 was used to stain BrDU to avoid false positive associated with auto-fluorescence inherent in adult cardiomyocytes in blue-green-yellow channels. To quantify proliferation, 5,000 cardiomyocytes per heart were imaged using a Nikon Spinning Disc confocal microscope using a 20× objective.
Finally, we sought to determine whether compounds 3 and 65 could regulate adult cardiomyocyte proliferation in vivo and whether the mevalonate pathway is critical for these effects. […] Following injection, proliferation was assessed using BrdU pulse-chase for 3 days, followed by fix-dissociation of the hearts, enabling preservation and separation of cardiomyocytes (FIG. 7F) and accurate quantification of BrdU positive cardiomyocytes (FIG. 7G). […]

Cc1ccc(NC(=O)c2ccnc(N3CCOCC3)c2)cc1Nc1ccnc(N2CC(C)OC(C)C2)n1 (stereo not shown) [compound 3]
2D Screen (AZ) 0.1 uM Prolif Activation EdU (%) (hPSC-CMs): −6% | 2D Screen (AZ) 1 uM Prolif Activation EdU (%) (hPSC-CMs): 35% | 2D Screen (AZ) 10 uM Prolif Activation EdU (%) (hPSC-CMs): 183% | 2D Screen Max Effect (%) (hPSC-CMs): 183% | cell cycle progression and mitosis of cardiomyocytes (pH3+) (mature hCOs): promoted cell cycle progression and mitosis | DNA synthesis response with simvastatin ([1]; 10 mg/kg intracardiac plus simvastatin 20 mg/kg s.c. daily): blocked | cardiomyocyte DNA synthesis (BrdU+) [1]: significantly increased

Cc1cc(Oc2ccnc(Nc3ccc(S(N)(=O)=O)cc3)c2)c(-c2ccccn2)nc1C [compound 65]
2D Screen (AZ) 0.1 uM Prolif Activation EdU (%) (hPSC-CMs): 48% | 2D Screen (AZ) 1 uM Prolif Activation EdU (%) (hPSC-CMs): 76% | 2D Screen (AZ) 10 uM Prolif Activation EdU (%) (hPSC-CMs): 171% | 2D Screen Max Effect (%) (hPSC-CMs): 171% | cell cycle progression and mitosis of cardiomyocytes (pH3+) (mature hCOs): promoted cell cycle progression and mitosis | cardiomyocyte DNA synthesis (BrdU+) [1]: significantly increased
